{"source": "patent US6448227B1", "about": "“Therapeutically effective substance mixture” (priority 1999, dated 2002)", "key": {"HSV-1 (McIntyre Strain)": {"tested_on": "HSV-1 (McIntyre Strain)", "test": "HSV-1 replication in human foreskin fibroblasts (virus titre)", "format": "cell-based, Herpes Simplex virus", "details": "for Virus titre: human fibroblasts; for Reduction factor: virus titre vs untreated", "procedure": "FIG. 1A relates to the concentration of S-acetyl glutathione of 20 mM, and FIG. 1B to the concentration of 10 mM. […] With the evaluation model used, a combination index of less than 1 signifies a synergistic effect, a combination index equal to 1 an additive effect, and a combination index of greater than 1 an antagonistic effect."}, "VZV (Strain 4400/95)": {"tested_on": "VZV (Strain 4400/95)", "details": "RPE cells"}, "[1]": {"details": "S-acetyl glutathione 10 mM alone"}, "[2]": {"details": "S-acetyl glutathione 20 mM alone"}}, "note": "Like-named read-outs stand apart in the source and are kept apart here."}
{"compound": "Nc1nc2c(ncn2COCCO)c(=O)[nH]1", "note": "[ACV, 9-[(2-hydroxyethoxy)methyl)guanine]", "values": [{"measurement": "Virus titre", "setting": "HSV-1 (McIntyre Strain); ACV 0.5 μM alone", "result": "3.1 × 10^6 TCID60/ml"}, {"measurement": "Reduction factor", "setting": "HSV-1 (McIntyre Strain); ACV 0.5 μM alone", "result": 6.8}, {"measurement": "Virus titre", "setting": "HSV-1 (McIntyre Strain); ACV 1 μM alone", "result": "3.3 × 10^5 TCID60/ml"}, {"measurement": "Reduction factor", "setting": "HSV-1 (McIntyre Strain); ACV 1 μM alone", "result": 64}, {"measurement": "Virus titre", "setting": "HSV-1 (McIntyre Strain); ACV 2 μM alone", "result": "3.8 × 10^3 TCID60/ml"}, {"measurement": "Reduction factor", "setting": "HSV-1 (McIntyre Strain); ACV 2 μM alone", "result": 5526}, {"measurement": "Effectiveness against HSV-1", "setting": "HSV-1 (McIntyre Strain); ACV alone, especially in the concentration of 2 μM", "result": "clear effectiveness"}]}
{"compound": "CC(=O)SC[C@H](NC(=O)CC[C@H](N)C(=O)O)C(=O)NCC(=O)O", "note": "[S-acetyl glutathione]", "values": [{"measurement": "Virus titre", "setting": "HSV-1 (McIntyre Strain); [1]", "result": "1.5 × 10^6 TCID60/ml"}, {"measurement": "Reduction factor", "setting": "HSV-1 (McIntyre Strain); [1]", "result": 14}, {"measurement": "Virus titre", "setting": "HSV-1 (McIntyre Strain); [2]", "result": "2.4 × 10^5 TCID60/ml"}, {"measurement": "Reduction factor", "setting": "HSV-1 (McIntyre Strain); [2]", "result": 91}, {"measurement": "Concentration from which effective against HSV-1", "setting": "HSV-1 (McIntyre Strain); S-acetyl glutathione alone", "result": "≥ 10", "unit": "mM"}, {"measurement": "Plaque number", "setting": "VZV (Strain 4400/95); [1]", "result": 59, "unit": "%"}, {"measurement": "Plaque number", "setting": "VZV (Strain 4400/95); [2]", "result": 52, "unit": "%"}]}
